In publication PMC9505538, “P-Glycoprotein (MDR1/ABCB1) Restricts Brain Accumulation of the Novel EGFR Inhibitor EAI045 and Oral Elacridar Coadministration Enhances Its Brain Accumulation and Oral Exposure” (Pharmaceuticals, 2022):
“And” between values parts separate entries of the source, which are not always exact repeats. Identical values can stand only once.

Key:
[1] = 24 h pharmacokinetic pilot experiment in WT, Cyp3a-/- and Cyp3aXAV mice; assay type: in vivo, mice (Mus musculus)
Method: To determine whether EAI045 and CYP3A interact in vivo, we carried out a 24 h pharmacokinetic pilot experiment using oral EAI045 at 20 mg/kg in female WT, Cyp3a knockout (Cyp3a^-/-), and transgenic Cyp3aXAV mice (these are humanized Cyp3a^-/- mice that express the human CYP3A4 in liver and small intestine). The plasma exposure and tissue distribution of EAI045 and PIA were measured. The tmax in all strains was around 5–30 min. […] In contrast, relative to Cyp3a^-/- or WT mice, the AUC0–30min and Cmax were not changed in Cyp3aXAV mice (Supplemental Figure S8A–C). Similar results were obtained for PIA (Supplemental Figure S8D–F). While not plotted separately, the PIA/EAI045 AUC ratios were also hardly changed between the three mouse strains.
All samples were stored at −30 °C until analysis.
Differences were considered statistically significant when p < 0.05. Data are presented as mean ± SD.

[2] = 30-min pharmacokinetic experiment with oral elacridar coadministration in WT mice
Method: Considering the potential therapeutic benefit of increasing EAI045 brain penetration, and possibly also plasma exposure, we investigated to what extent elacridar, a dual ABCB1 and ABCG2 inhibitor, could increase the brain penetration and oral exposure of EAI045. We performed a 30-min pharmacokinetic experiment with an EAI045 dose of 20 mg/kg, and elacridar at 50 mg/kg. As elacridar plasma concentration peaks around 3–4 h after oral administration, elacridar was administered orally 3 h prior to oral EAI045 administration to male WT mice. Plasma and tissue EAI045 levels were determined 30 min later.
Mice (Mus musculus) were bred in the Netherlands Cancer Institute and housed and handled according to institutional guidelines complying with Dutch and EU legislation. Animals used were WT, Abcb1a/1b^-/- [39], Abcg2^-/- [40], Abcb1a/1b;Abcg2^-/- [41], Cyp3a^-/- [42], and Oatp1a/1b^-/- [43] mice of a >99% FVB/N strain background. Homozygous CYP3A4 humanized transgenic mice (Cyp3aXAV) were generated by cross-breeding of transgenic mice with stable human CYP3A4 expression in the liver or intestine, respectively, in a Cyp3a^-/- background. Proper functionality of the knockout and transgenic strains was monitored by regular testing with a variety of drug substrates. All the mice used were between 10 and 15 weeks of age. Animals were kept in a temperature-controlled environment with a 12 h light/12 h dark cycle and received a standard diet (Transbreed, SDS Diets, Technilab-BMI, The Netherlands) and acidified water ad libitum. Depending on the type of experiment, 5 or 6 mice were tested in each experimental group. All experimental animal protocols, including power calculations, were ethically assessed and designed under the nationally approved DEC/CCD project AVD301002016595 (approval date, 10 August 2016) and evaluated and approved by the institutional animal care and use committee (IACUC) of the Netherlands Cancer Institute.
EAI045 was dissolved in dimethyl sulfoxide (DMSO) at a concentration of […], and then diluted with a mixture of polysorbate 80/ethanol (1:1, v/v), and further diluted with 5% (w/v) glucose in water to yield a concentration of 2 mg/mL. Final concentrations for DMSO, polysorbate 80, ethanol, and glucose in the dosing solution were 5%, 2.5%, 2.5%, and 4.5% (v/v/v/w), respectively. Elacridar hydrochloride was dissolved in DMSO at a concentration of 53 mg/mL, then diluted with a mixture of polysorbate 80, ethanol, and water [20:13:67, (v/v/v)] to yield a concentration of 5 mg/mL elacridar. The final oral dose of elacridar was 50 mg/kg body weight. All dosing solutions were prepared freshly on the day of experiment.
To minimize variation in absorption, mice were fasted for about 3 h before EAI045 was administered by gavage into the stomach (n = 5–6), using a blunt-ended needle. EAI045 was administered orally at dose of 20 mg/kg. Elacridar was administered orally at a dose of 50 mg/kg, 3 h prior to oral EAI045 administration. For the 24- or 4-h experiments, tail vein blood samplings were performed at 5 min, 30 min, 1, 2, 4, and 8 h, or 5 min, 15 min, 30 min, 1, and 2 h time points after oral administration of EAI045, respectively, using microvettes containing heparin. For the 30 min experiments, blood samplings were performed at 5, 10, and 20 min from the tail vein. At the last time point (24 h, 4 h, or 30 min), mice were anesthetized with isoflurane and blood was collected by cardiac puncture. Then, mice were sacrificed by cervical dislocation and brain, liver, spleen, kidneys, lung, small intestine with content (SIWC), and testis were rapidly removed and weighed. Tissues were homogenized on ice in appropriate volumes of 2% (w/v) BSA. Blood samples were centrifuged at 9000× g for 6 min at 4 °C immediately after collection.

[3] = WT + elacridar compared to Abcb1a/1b;Abcg2-/- mice, 30 min
[4] = male WT mice + elacridar, EAI045 20 mg/kg oral, 30 min
[5] = male WT mice + elacridar, EAI045 20 mg/kg oral, plasma

plasma exposure of EAI045 over 30 min (AUC0–30min), fold lower ([1]; Cyp3a-/- mice than WT mice, 20 mg/kg oral): 1.6 fold
AUC0–30min and Cmax ([1]; Cyp3aXAV mice relative to Cyp3a-/- or WT mice, 20 mg/kg oral): not changed
tmax ([1]; female WT, Cyp3a-/- and Cyp3aXAV mice (all strains), EAI045 20 mg/kg oral): 5 to 30 min
plasma AUC0–30min, fold increase ([2]; WT + elacridar compared to Abcb1a/1b;Abcg2-/- mice): 2.4 fold
SIWC%, fold decrease [2, 3]: 3.5 fold
SIWC%-to-plasma ratio, fold decrease [2, 3]: 8.6 fold
Fold change Cbrain ([2]; WT + elacridar vs WT, 30 min): 17 fold and 17.0 fold
Fold change Ctestis ([2]; WT + elacridar vs WT, 30 min): 8.7 fold
Fold change Kp.SIWC% ([2]; WT + elacridar vs WT, 30 min): 0.032 fold
Fold change Kp.brain ([2]; WT + elacridar vs WT, 30 min): 5.4 fold
Fold change Kp.testis ([2]; WT + elacridar vs WT, 30 min): 2.6 fold
Fold change SIWC% ([2]; WT + elacridar vs WT, 30 min): 0.13 fold
Kp.SIWC% (SIWC%-to-plasma ratio), fold decrease ([2]; WT + elacridar vs WT, 30 min): 30.8 fold
SIWC%, fold decrease ([2]; WT + elacridar vs WT, 30 min): 7.5 fold
Fold change AUC ([2]; WT + elacridar vs WT, plasma AUC0–30min, EAI045 20 mg/kg oral, 20 mg/kg): 4 fold and 4.0 fold
Plasma AUC0–30min ([2]; male WT mice + elacridar 50 mg/kg oral 3 h before, EAI045 20 mg/kg oral): 549 ± 82 ***^. +++ h*ng/mL
Cbrain (brain concentration) [2, 4]: 395.9 ± 123.1 ***^. +++ ng/g
Ctestis (testis concentration) [2, 4]: 198.7 ± 58.9 ***^. +++ ng/g
Kp.SIWC% (SIWC%-to-plasma ratio) [2, 4]: 5.13 ± 2.63
Kp.brain (brain-to-plasma ratio) [2, 4]: 0.560 ± 0.200
Kp.testis (testis-to-plasma ratio) [2, 4]: 0.280 ± 0.096
SIWC% (drug percentage of dose in small intestine with content) [2, 4]: 4.00 ± 2.57 %
Cmax [2, 5]: 1512 ± 260 ng/mL
tmax [2, 5]: 10 to 30 min
Compound: O=C(Nc1nccs1)C(c1cc(F)ccc1O)N1Cc2ccccc2C1=O (stereo not drawn) [EAI045]
